From US20090004726A1, “Inhibitor Tolerant Saccharomyces Cerevisiae Strain” (The United States of America, as represented by the …, priority 2007, published 2009)

What was measured:
[1] = tested on: furfural reduction activity of Y-50049 whole cell extracts; test: Whole cell lysate enzyme assay after inhibitor induction (absorbance at 340 nm); type: biochemical, Saccharomyces cerevisiae; settings: induction with 30 mM inhibitor for 3 h; 10 mM furfural substrate; 100 μM NADPH
[2] = tested on: Saccharomyces cerevisiae NRRL Y-12632; test: Dose-dependent response of ethanologenic yeast to HMF (cell growth, OD600)
Procedure: A loopful of cells of each strain from the synthetic medium agar plate was transferred into a synthetic broth and incubated at 30° C. with agitation and maintained in the broth prior to inoculum preparation. Cells were harvested by centrifugation 8-15 hours after incubation and suspended in a fresh synthetic broth serving as the inoculum source. The initial OD at 620 nm of the inoculated medium for each culture was adjusted and recorded. Each strain was grown in a 15-ml test tube containing 3 ml of synthetic broth amended with inhibitory compounds in an incubator at 30° C. with agitation at 220 rpm under micro-oxic conditions. Cell growth was monitored by measuring optical absorbance at 620 nm using a spectrophotometer and samples were taken periodically.
For inhibitor application, cultures were supplemented with HMF at a series of final concentrations of 0, 10, 30, 60, and 120 mM, or combined inhibitors of furfural and HMF each at 12 mM, respectively. A non inhibitor treated culture served as a control. Cultures were monitored for cell growth at OD600 and samples were taken hourly for the first 16 hours and proper intervals afterward till the completion of the fermentation. Cell free supernatant was taken for metabolic profiling analysis using HPLC. […] Duplicated experiments were carried out for all treatments.

| SMILES | induced furfural reduction activity coupled with cofactor NADPH [1] | cell growth ([2]; HMF at 120 mM) | cell growth ([2]; HMF at 10, 30 and 60 mM, compared with control) | lethal dose (cells completely repressed, no biological activity or HMF transformation till 128 hours) ([2]; synthetic medium, 30° C.) |
| --- | --- | --- | --- | --- |
| O=Cc1ccc(CO)o1 [HMF, 5-hydroxymethylfurfural] | ranked the least | no cell growth was observed | delayed | 120 mM |
| O=Cc1ccco1 [furfural] | strongest activities | – | – | – |
